Eleven compounds from ChEMBL document CHEMBL4828717, “Synthetic cajaninstilbene acid derivatives eradicate methicillin-resistant Staphylococcus aureus persisters and biofilms” (Eur J Med Chem, 2021) can be followed below.

A value given as a limit tells only on which side of the number the result lay.

For data set [1], the system named is Staphylococcus aureus. Nature of the data set: Antibacterial activity against Staphylococcus aureus ATCC 25923 assessed as reduction in microbial growth after 16 to 18 hrs by microbroth dilution method. The class given is functional. The settings on record: time 16-18 hrs. A general note: Broth dilution looks for growth in wells or tubes with falling amounts of substance.

Data set [2] relates to Staphylococcus aureus. Nature of the data set: Antibacterial activity against methicillin resistant Staphylococcus aureus ATCC 43300 assessed as reduction in microbial growth after 16 to 18 hrs by microbroth dilution method. The class given is functional. The following applies: time 16-18 hrs.
Data set [3] deals with Staphylococcus aureus. Nature of the data set: Antibacterial activity against methicillin resistant Staphylococcus aureus ATCC 62202 assessed as reduction in microbial growth after 16 to 18 hrs by microbroth dilution method. It counts as functional. The settings on record: time 16-18 hrs.
The test system of data set [4] is Staphylococcus aureus. Nature of the data set: Antibacterial activity against methicillin resistant Staphylococcus aureus ATCC 52056 assessed as reduction in microbial growth after 16 to 18 hrs by microbroth dilution method. The class given is functional. The settings on record: time 16-18 hrs.
The test system of data set [5] is Staphylococcus aureus. As to the kind of experiment: Antibacterial activity against methicillin resistant Staphylococcus aureus ATCC513045 assessed as reduction in microbial growth after 16 to 18 hrs by microbroth dilution method. It counts as functional. The settings on record: time 16-18 hrs.
Data set [6] deals with Staphylococcus aureus. As to the kind of experiment: Antibacterial activity against methicillin resistant Staphylococcus aureus ATCC515992 assessed as reduction in microbial growth after 16 to 18 hrs by microbroth dilution method. The settings on record: time 16-18 hrs. It counts as functional.
Data set [7] deals with Staphylococcus aureus. Nature of the data set: Antibacterial activity against methicillin resistant Staphylococcus aureus ATCC49800 assessed as reduction in microbial growth after 16 to 18 hrs by microbroth dilution method. The settings on record: time 16-18 hrs. It counts as functional.
Data set [8] has as its system Staphylococcus aureus. As to the kind of experiment: Antibacterial activity against methicillin resistant Staphylococcus aureus ATCC49025 assessed as reduction in microbial growth after 16 to 18 hrs by microbroth dilution method. It counts as functional. The settings on record: time 16-18 hrs.
Data set [9] relates to Staphylococcus aureus. Nature of the data set: Antibacterial activity against methicillin resistant Staphylococcus aureus ATCC48073 assessed as reduction in microbial growth after 16 to 18 hrs by microbroth dilution method. The class given is functional. The following applies: time 16-18 hrs.
For data set [10], the system named is Staphylococcus aureus. Nature of the data set: Antibacterial activity against methicillin resistant Staphylococcus aureus ATCC48966 assessed as reduction in microbial growth after 16 to 18 hrs by microbroth dilution method. The class given is functional. The following applies: time 16-18 hrs.
For data set [11], the system named is Staphylococcus aureus. Nature of the data set: Antibacterial activity against methicillin resistant Staphylococcus aureus ATCC49008 assessed as reduction in microbial growth after 16 to 18 hrs by microbroth dilution method. It counts as functional. The settings on record: time 16-18 hrs.
The subject of data set [12] is Staphylococcus aureus. Nature of the data set: Antibacterial activity against methicillin resistant Staphylococcus aureus ATCC48706 assessed as reduction in microbial growth after 16 to 18 hrs by microbroth dilution method. The class given is functional. The settings on record: time 16-18 hrs.
The test system of data set [13] is Escherichia coli. Nature of the data set: Antibacterial activity against Escherichia coli ATCC25922 assessed as reduction in microbial growth after 16 to 18 hrs by microbroth dilution method. The settings on record: ATCC 25922, time 16-18 hrs. The class given is functional.
Data set [14] has as its system Pseudomonas aeruginosa. Nature of the data set: Antibacterial activity against Pseudomonas aeruginosa ATCC27853 assessed as reduction in microbial growth after 16 to 18 hrs by microbroth dilution method. It counts as functional. The settings on record: time 16-18 hrs.
Data set [15] deals with Enterococcus faecalis. As to the kind of experiment: Antibacterial activity against Enterococcus faecalis ATCC29212 assessed as reduction in microbial growth after 16 to 18 hrs by microbroth dilution method. The class given is functional. The settings on record: ATCC 29212, time 16-18 hrs.
Data set [16] concerns RAW264.7. Nature of the data set: Cytotoxicity against mouse RAW264.7 cells assessed as cell viability at 10 ug/ml measured after 24 hrs by MTT assay. The class given is cell-based. The settings on record: raw264.7, 24 h, dose 10 µg/ml. In general terms: Tetrazolium assays rely on reduction of a dye to a coloured formazan, in cell work by metabolically active cells.
Data set [17] deals with L02. Nature of the data set: Cytotoxicity against human L02 cells assessed as cell viability at 10 ug/ml measured after 24 hrs by MTT assay. The class given is cell-based. The settings on record: l02, 24 h, dose 10 µg/ml.

Usually MIC stands for the least concentration at which growth counts as inhibited. In the case of `CC(C)=CCc1c(OCCCF)cc(/C=C/c2ccc(C(F)(F)F)cc2)c(C(=O)O)c1O`, the MIC in data set [1] was determined as 2 µg/mL; in data set [2], 2 µg/mL; in [3], 4 µg/mL; in [4] it was 2 µg/mL; in [5], 2 µg/mL; in [6], 4 µg/mL. Moreover, the MIC in [7], in [8], in [9], in [10], in data set [11] and in [12] was 4 µg/mL in each case. Besides, the MIC in data set [13], in [14] and in data set [15] was greater than 32 µg/mL each time. The Activity result in data set [16] and in [17] was “Toxic” each time.
With `CC(C)=CCc1c(OCCCCF)cc(/C=C/c2ccc(F)cc2)c(C(=O)O)c1O`, the minimal inhibitory concentration (MIC) in [1], in data set [2], in data set [3], in [4], in data set [5] and in data set [6] was 4 µg/mL in each case. In addition, the MIC in [7], in data set [8], in data set [9], in data set [10], in data set [11] and in [12] was 4 µg/mL each time. In addition, the minimal inhibitory concentration (MIC) in data set [13], in [14] and in data set [15] was greater than 32 µg/mL each time. Further, the Activity result in data set [16] and in [17] was “Toxic” in each case.
For the compound `CCC(CC)Oc1cc(/C=C/c2ccc(C(F)(F)F)cc2)c(C(=O)O)c(O)c1CC=C(C)C`, the minimal inhibitory concentration (MIC) was 1 µg/mL in [1]; 2 µg/mL in data set [2]; 1 µg/mL in [3]; 1 µg/mL in data set [4]; 1 µg/mL in data set [5]; 2 µg/mL in data set [6]. In addition, the minimum inhibitory concentration (MIC) in data set [7], in data set [8], in data set [9], in [10], in data set [11] and in data set [12] was 2 µg/mL in each case. Besides, the minimal inhibitory concentration (MIC) in data set [13], in [14] and in data set [15] was greater than 32 µg/mL each time. For the same compound, the Activity result in data set [16] and in data set [17] was “Toxic” in each case.
For `CC(C)=CCc1c(OCC(F)F)cc(/C=C/c2ccc(C(F)(F)F)cc2)c(C(=O)O)c1O`, the MIC in [1], in data set [2], in [3], in [4], in [5] and in data set [6] was 2 µg/mL each time. Besides, the minimum inhibitory concentration (MIC) in data set [7], in data set [8], in [9], in data set [10], in data set [11] and in [12] was 2 µg/mL in each case. Besides, the MIC in [13], in data set [14] and in [15] was greater than 32 µg/mL in each case. The Activity result in data set [16] and in data set [17] was “Toxic” in each case.
With `CCOc1cc(/C=C/c2ccc(F)cc2)c(C(=O)O)c(O)c1CC=C(C)C`, the MIC in data set [1] is 4 µg/mL; in data set [2], 2 µg/mL; in [3], 4 µg/mL; in data set [4] it was 2 µg/mL; in [5], 4 µg/mL; in [6], 4 µg/mL. For the same compound, the minimal inhibitory concentration (MIC) stood at 8 µg/mL in data set [7]; 4 µg/mL in data set [8]; 4 µg/mL in [9]; 4 µg/mL in data set [10]; 4 µg/mL in data set [11]; 4 µg/mL in [12]. The MIC in data set [13], in [14] and in data set [15] was greater than 32 µg/mL throughout. In addition, the Activity entry in data set [16] and in data set [17] was “Toxic” each time.
Consider `CC(C)=CCc1c(OCC2CC2)cc(/C=C/c2ccc(C(F)(F)F)cc2)c(C(=O)O)c1O`, for which the minimum inhibitory concentration (MIC) in data set [1] worked out at 1 µg/mL; in data set [2] it was 2 µg/mL; in data set [3] it was 2 µg/mL; in data set [4], 1 µg/mL; in data set [5], 2 µg/mL; in data set [6], 2 µg/mL. Besides, the MIC in data set [7], in data set [8], in data set [9], in [10], in data set [11] and in data set [12] was 2 µg/mL each time. The MIC in [13], in data set [14] and in data set [15] was greater than 32 µg/mL each time. Further, the Activity result in data set [16] and in data set [17] was “Toxic” each time.
Regarding `CC(C)=CCc1c(OCC2CC2)cc(/C=C/c2ccc(F)cc2)c(C(=O)O)c1O`, the minimum inhibitory concentration (MIC) is 2 µg/mL in [1]; 2 µg/mL in data set [2]; 4 µg/mL in data set [3]; 2 µg/mL in data set [4]; 2 µg/mL in data set [5]; 2 µg/mL in [6]. Moreover, the MIC in data set [7], in data set [8], in data set [9], in data set [10], in data set [11] and in data set [12] was 2 µg/mL each time. The minimum inhibitory concentration (MIC) in [13], in data set [14] and in data set [15] was greater than 32 µg/mL each time. Besides, the Activity result in [16] and in data set [17] was “Toxic” throughout.
For the compound `CC(C)=CCc1c(OC2CCCC2)cc(/C=C/c2ccc(F)cc2)c(C(=O)O)c1O`, the minimum inhibitory concentration (MIC) in data set [1], in [2], in [3], in data set [4], in data set [5] and in data set [6] was 2 µg/mL in each case. Further, the MIC in data set [7], in [8], in [9], in data set [10], in data set [11] and in data set [12] was 4 µg/mL each time. Further, the minimum inhibitory concentration (MIC) in [13], in data set [14] and in [15] was greater than 32 µg/mL throughout. In addition, the Activity result in data set [16] and in [17] was “Toxic” throughout.
On to `CCCC(CC)Oc1cc(/C=C/c2ccc(C(F)(F)F)cc2)c(C(=O)O)c(O)c1CC=C(C)C` (configuration not stated), for which the MIC came out at 4 µg/mL in [1]; 2 µg/mL in [2]; 2 µg/mL in data set [3]; 2 µg/mL in [4]; 2 µg/mL in data set [5]; 4 µg/mL in data set [6]. For the same compound, the MIC amounted to 4 µg/mL in data set [7]; 8 µg/mL in [8]; 4 µg/mL in [9]; 8 µg/mL in data set [10]; 8 µg/mL in data set [11]; 4 µg/mL in data set [12]. Besides, the MIC in data set [13], in [14] and in data set [15] was greater than 32 µg/mL throughout. Also, the Activity result in data set [16] and in [17] was “Toxic” in each case.
On to `CC(C)=CCc1c(OC2CCCCC2)cc(/C=C/c2ccc(C(F)(F)F)cc2)c(C(=O)O)c1O`, for which the MIC in [1] worked out at 2 µg/mL; in data set [2], 1 µg/mL; in data set [3], 2 µg/mL; in data set [4], 2 µg/mL; in data set [5], 2 µg/mL; in data set [6], 2 µg/mL. For the same compound, the MIC in data set [7], in data set [8], in data set [9], in data set [10], in [11] and in [12] was 4 µg/mL throughout. For the same compound, the MIC in data set [13], in data set [14] and in data set [15] was greater than 32 µg/mL each time. Also, the Activity result in data set [16] and in data set [17] was “Toxic” throughout.
`CC(C)=CCc1c(OC(C)C)cc(/C=C/c2ccc(F)cc2)c(C(=O)O)c1O`: the minimum inhibitory concentration (MIC) in [1] turned out to be 4 µg/mL; in data set [2] it was 4 µg/mL; in [3], 4 µg/mL; in data set [4] it was 2 µg/mL; in data set [5], 8 µg/mL; in [6] it was 2 µg/mL. Moreover, the MIC in data set [7], in data set [8], in data set [9], in data set [10], in [11] and in data set [12] was 4 µg/mL in each case. For the same compound, the MIC in data set [13], in data set [14] and in data set [15] was greater than 32 µg/mL in each case. The Activity result in data set [16] and in data set [17] was “Toxic” in each case.
